In US12583858B2 (Genentech, Inc., priority 2015, dated 2026):

target: T1, TDO2 (Homo sapiens, UniProt P48775); assay: TDO2 cell assay (NFK GreenScreen, SW48 cells); type: cell-based; conditions: SW48 cells (high TDO expressing), 200 uM tryptophan, 24 hours; Table 3; read-out: TDO2 Cell Fluor EC50
T1 construct: decreased levels of NFK in SW48 cells (high TDO expressing cells)
T1 sequence (P48775 whole entry): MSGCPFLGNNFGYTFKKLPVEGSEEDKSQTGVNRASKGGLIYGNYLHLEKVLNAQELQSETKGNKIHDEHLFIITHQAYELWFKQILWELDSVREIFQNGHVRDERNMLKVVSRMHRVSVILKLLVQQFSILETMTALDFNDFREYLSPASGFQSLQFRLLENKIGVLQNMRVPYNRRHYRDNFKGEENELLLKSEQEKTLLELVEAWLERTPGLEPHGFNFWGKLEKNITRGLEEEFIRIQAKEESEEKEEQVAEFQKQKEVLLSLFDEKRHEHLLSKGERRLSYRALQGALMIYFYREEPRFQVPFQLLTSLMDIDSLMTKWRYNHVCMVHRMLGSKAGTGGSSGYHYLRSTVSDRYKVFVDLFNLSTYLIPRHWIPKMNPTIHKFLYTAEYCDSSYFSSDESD

SMILES	EC50
Cc1ccc2c(c1)C(C1COCC1O)n1cncc1-2 (single isomer, unassigned) [Example 110b]	> 25 µM
OC1C(C2c3ccccc3-c3cncn32)CCC12CCOCC2 (single isomer, unassigned) [Example 68g]	> 25 µM
C[C@@H](O)[C@@H]1c2ccccc2-c2cncn21 [Example 42a, (R)-1-((S)-5H-imidazo[5,1-a]isoindol-5-yl)ethan-1-ol]	> 25 µM
OC1C(C2c3ccccc3-c3cncn32)CCC12CCOCC2 (single isomer, unassigned) [Example 68d]	> 25 µM
OC1C(C2c3ccc(F)cc3-c3cncn32)CC12CCOCC2 (single isomer, unassigned) [Example 109h]	> 25 µM
OC1c2nccn2CCC1C1c2ccccc2-c2cncn21 (single isomer, unassigned) [Example 88h]	> 25 µM
OC(c1ccncc1)C1c2ccccc2-c2cncn21 (single isomer, unassigned) [Example 152d]	> 25 µM
OC1(C2c3ccccc3-c3cncn32)CCCOC1 (single isomer, unassigned) [Example 144d]	> 25 µM
CC1(C)OCC(C2c3ccccc3-c3cncn32)C1O (single isomer, unassigned) [Example 85e]	> 25 µM
OC1CCOCC1C1c2cccc(F)c2-c2cncn21 (single isomer, unassigned) [Example 170c]	> 25 µM
N#CC1CCC(O)(C2c3ccccc3-c3cncn32)CC1 (single isomer, unassigned) [Example 145c]	19 µM
CS(=O)(=O)N1CCC(O)C(C2c3ccc(F)cc3-c3cncn32)C1 (single isomer, unassigned) [Example 118b]	> 25 µM
NS(=O)(=O)N1CC[C@@H]([C@H]2c3ccccc3-c3cncn32)[C@H](O)C1 [Example 39a, (3S,4S)-3-hydroxy-4-((S)-5H-imidazo[5,1-a]isoindol-5-yl)piperidine-1-sulfonamide]	> 25 µM
NS(=O)(=O)N1CCC2(CCC(C3c4ccccc4-c4cncn43)C2O)CC1 (single isomer, unassigned) [Example 182a]	> 25 µM
Nc1cc2n(n1)CCC(C1c3ccccc3-c3cncn31)C2O (single isomer, unassigned) [Example 161e]	> 25 µM
CCS(=O)(=O)N1CC[C@H]([C@H]2c3ccccc3-c3cncn32)[C@@H](O)C1 (stereo in doubt) [Example 16d, (3R,4R)-1-(ethylsulfonyl)-4-((S)-5H-imidazo[5,1-a]isoindol-5-yl)piperidin-3-ol]	> 25 µM
CCS(=O)(=O)N1CC(O)(CC2c3ccccc3-c3cncn32)C1 (single isomer, unassigned) [Example 108b]	> 25 µM
NC(=O)c1nc2c(s1)CCC(C1c3ccccc3-c3cncn31)C2O (single isomer, unassigned) [Example 149g]	24.2 µM
OC(C1CC1)C1c2ccccc2-c2cncn21 (single isomer, unassigned) [Example 52c]	> 25 µM
OC(C1c2ccccc2-c2cncn21)C1(F)CC1 (single isomer, unassigned) [Example 154b]	> 25 µM
C[C@H](O)[C@@H]1c2ccccc2-c2cncn21 [Example 42d, (S)-1-((S)-5H-imidazo[5,1-a]isoindol-5-yl)ethan-1-ol]	23.7 µM
OC1c2ccnn2CCCC1C1c2ccccc2-c2cncn21 (single isomer, unassigned) [Example 133d]	> 25 µM
O[C@@H]1CC[C@H]1[C@@H]1c2ccccc2-c2cncn21 (single isomer, unassigned) [Example 01f]	> 25 µM
O=S(=O)(C1CC1)N1CC[C@@H](O)[C@H]([C@@H]2c3ccccc3-c3cncn32)C1 (single isomer, unassigned) [Example 70c]	> 25 µM
NC(=O)c1cc2n(n1)CCC(C1c3ccccc3-c3cncn31)C2O (single isomer, unassigned) [Example 172a]	> 25 µM
Nc1ncc2c(n1)CCC(C1c3ccccc3-c3cncn31)C2O (single isomer, unassigned) [Example 111d]	> 25 µM

Stronger by EC50, values ahead:

EC50	SMILES
16 µM	O=S1(=O)CC(O)C(C2c3ccccc3-c3cncn32)C1 (single isomer, unassigned) [Example 38a]
15 µM	CCS(=O)(=O)N1CCC2(CC1)CC(C1c3ccccc3-c3cncn31)C2O (single isomer, unassigned) [Example 114c]
14 µM	OC(c1ccncc1)C1c2ccccc2-c2cncn21 (single isomer, unassigned) [Example 152a]
12 µM	O[C@@H]1CCC[C@@H]1[C@@H]1c2ccccc2-c2cncn21 [Example 02a, (1R,2R)-2-((R)-5H-imidazo[5,1-a]isoindol-5-yl)cyclopentan-1-ol]
12 µM	OC1c2cncnc2CCC1C1c2ccccc2-c2cncn21 (single isomer, unassigned) [Example 94f]
11.8 µM	C[C@@H](O)[C@H]1c2ccccc2-c2cncn21 [Example 42b, (R)-1-((R)-5H-imidazo[5,1-a]isoindol-5-yl)ethan-1-ol]
11 µM	OC1CCOCC1C1c2c(Cl)cccc2-c2cncn21 (single isomer, unassigned) [Example 69c]
9.7 µM	O[C@H](C1CCOCC1)[C@@H]1c2ccccc2-c2cncn21 [Example 138a, (R)—((S)-5H-imidazo[5,1-a]isoindol-5-yl)(tetrahydro-2H-pyran-4-yl)methanol]
8.6 µM	CS(=O)(=O)N1CCC2(CC1)CC(C1c3ccccc3-c3cncn31)C2O (single isomer, unassigned) [Example 179h]
7.26 µM	OC1(C2c3ccccc3-c3cncn32)COC1 (racemic) [Example 48, 3-(5H-imidazo[5,1-a]isoindol-5-yl)oxetan-3-ol]
6.6 µM	N#Cc1ccc2c(c1)CCC(C1c3ccccc3-c3cncn31)C2O (single isomer, unassigned) [Example 62c]
6.4 µM	OC1CCOCC1C1c2c(F)cccc2-c2cncn21 (single isomer, unassigned) [Example 73a]
5.1 µM	NS(=O)(=O)N1CCC(O)C(C2c3ccccc3-c3cncn32)CC1 (single isomer, unassigned) [Example 101b, 4-hydroxy-5-(5H-imidazo[5,1-a]isoindol-5-yl)azepane-1-sulfonamide]
5 µM	OC1C(C2c3ccccc3-c3cncn32)CC12CCOCC2 (single isomer, unassigned) [Example 57b]
4.6 µM	NS(=O)(=O)N1CCC2(CCC(C3c4ccccc4-c4cncn43)C2O)CC1 (single isomer, unassigned) [Example 182c]
3.8 µM	OC1(C2c3ccccc3-c3cncn32)CCCc2ccncc21 (single isomer, unassigned) [Example 141b]
3.7 µM	CC(C)(C)OC(=O)N1CCCC(O)(C2c3ccccc3-c3cncn32)C1 (single isomer, unassigned) [Example 127a]
2.8 µM	CCS(=O)(=O)N1CC(O)(CC2c3ccccc3-c3cncn32)C1 (single isomer, unassigned) [Example 108a]

EC50	SMILES
2.4 µM	NC(=O)c1ccc2c(c1)CC[C@H](C1c3ccccc3-c3cncn31)[C@H]2O (stereo in doubt) [Example 60c, (5R,6R)-5-hydroxy-6-((S)-5H-imidazo[5,1-a]isoindol-5-yl)-5,6,7,8-tetrahydronaphthalene-2-carboxamide]
2 µM	CC1(C)COCC(C2c3ccccc3-c3cncn32)C1O (single isomer, unassigned) [Example 66d]
2 µM	OC1c2ccccc2CC1C1c2ccccc2-c2cncn21 (single isomer, unassigned) [Example 19e]
0.94 µM	OC1c2ccnn2CCCC1C1c2ccccc2-c2cncn21 (single isomer, unassigned) [Example 133b]
0.81 µM	Cn1ncc2c1CCC(C1c3ccccc3-c3cncn31)C2O (single isomer, unassigned) [Example 93f]
0.76 µM	O[C@H]1c2ccnn2CC[C@H]1[C@H]1c2ccccc2-c2cncn21 [Example 56e, (4R,5S)-5-((S)-5H-imidazo[5,1-a]isoindol-5-yl)-4,5,6,7-tetrahydropyrazolo[1,5-a]pyridin-4-ol]
0.75 µM	CC(C)(C)OC(=O)N1CC2(CC(C3c4ccccc4-c4cncn43)C2O)C1 (single isomer, unassigned) [Example 41h, tert-butyl 7-hydroxy-6-(5H-imidazo[1,5-b]isoindol-5-yl)-2-azaspiro[3.3]heptane-2-carboxylate]
0.66 µM	CC1(C)OCC(C2c3ccccc3-c3cncn32)C1O (single isomer, unassigned) [Example 85h]
0.62 µM	N#CC1(C(O)C2c3ccccc3-c3cncn32)CC1 (single isomer, unassigned) [Example 153a]
0.51 µM	OC1CCCCC1C1c2ccc(F)cc2-c2cncn21 (single isomer, unassigned) [Example 25a]
0.2 µM	CCC(O)C1c2ccccc2-c2cncn21 (single isomer, unassigned) [Example 137c]
0.18 µM	OC1c2ccccc2CC1C1c2ccccc2-c2cncn21 (single isomer, unassigned) [Example 19c]
0.15 µM	OC1C(C2c3ccc(F)cc3-c3cncn32)CC12CCOCC2 (single isomer, unassigned) [Example 109g]
0.11 µM	CNS(=O)(=O)N1CC[C@@H]([C@H]2c3ccccc3-c3cncn32)[C@H](O)C1 [Example 74b, (3S,4S)-3-hydroxy-4-((S)-5H-imidazo[5,1-a]isoindol-5-yl)-N-methylpiperidine-1-sulfonamide]
0.073 µM	CN(C)C(=O)c1ccc2c(c1)CCC(C1c3ccccc3-c3cncn31)C2O (single isomer, unassigned) [Example 98a]
0.057 µM	NC(=O)c1ccc2c(c1)CC[C@@H]([C@H]1c3ccccc3-c3cncn31)[C@H]2O [Example 60f, (5R,6S)-5-hydroxy-6-((S)-5H-imidazo[5,1-a]isoindol-5-yl)-5,6,7,8-tetrahydronaphthalene-2-carboxamide]
0.044 µM	NS(=O)(=O)c1ccc2c(c1)C(O)C(C1c3ccccc3-c3cncn31)CC2 (single isomer, unassigned) [Example 105d]
